This is an account of results in patent US20130058957A1, “DENDRITIC CELL IMMUNORECEPTOR AGONIST” (THE UNIVERSITY OF TOKYO, priority 2010, published 2013).

For experiment [1], the system named is bone marrow cell-derived osteoclasts (OC formation). Put plainly: In vitro osteoclast formation, count of TRAP-positive multinucleate cells. In kind it is cell-based, mouse. The settings on record: for OC differentiation in the presence of carbohydrate chain: carbohydrate chain 10 ng/mL, FIG. 8e; for OC formation (number of TRAP-positive MNCs): KS-II 100 ng/mL, FIGS. 8c, 8d. Here is the method: Nonadherent bone marrow cells were seeded in a well plate (in a 24-well plate at 5×10^5 cells/well or in a […] at 3×10^6 cells/well) and were cultured in α-MEM (Gibco BRL) containing 10% FCS (manufactured by Biowest AG) and 10 ng/mL M-CSF (manufactured by R&D Systems, Inc.). After two days, nonadherent cells (including lymphocytes) were washed away, and remaining adherent cells were used as bone marrow-derived macrophages (BMMs). These osteoclast precursor cells (pOCs) were further cultured in the presence of 100 ng/mL of soluble RANKL (manufactured by PeproTech Inc. or Oriental Yeast Co., Ltd.) and 10 ng/mL of M-CSF to obtain osteoclasts. After three days, the osteoclasts were fixed in 10% neutral buffered formalin for three minutes, further kept in a mixture of ethanol/acetone (50:50 v:v) for 1 minute and subsequently incubated in a TRAP staining solution (Naphthol AS-MX phosphate: 5 mg, N,N-dimethylformamide: 0.5 mL, fast red violet LB salt: 30 mg, 0.1 M sodium acetate buffer (pH 5.0) containing 50 mM sodium tartrate: 50 mL) at room temperature. The number of TRAP-positive multinucleate cells (MNCs having three or more nuclei) was counted.
(§1) In order to investigate the influence of GM-CSF on osteoclast formation, mouse GM-CSF enzyme immunoassay (manufactured by PerSeptive Biosystems, Inc.), recombinant GM-CSF (manufactured by PeproTech Inc.), and anti-mouse GM-CSF neutralizing antibody (manufactured by R&D Systems, Inc.) were used. Furthermore, in the proliferation assay, pOCs were seeded (in a 96-well plate at 1×10^4 cells/well) and cultured in the presence of 10 ng/mL M-CSF only or M-CSF and 100 ng/mL RANKL or 20 ng/mL GM-CSF for three days. Subsequently, the cells were exposed to [^3H]TdR (0.5 μCi/mL) overnight.

Experiment [2] has as its target T1, recombinant mouse DCIR (mDCIR) (Mus musculus, UniProt Q9QZ15).
T1 construct: containing an extracellular domain (99th to 238th residues) was expressed as an inclusion body in E. coli; made in house
T1 sequence (Q9QZ15 99-238): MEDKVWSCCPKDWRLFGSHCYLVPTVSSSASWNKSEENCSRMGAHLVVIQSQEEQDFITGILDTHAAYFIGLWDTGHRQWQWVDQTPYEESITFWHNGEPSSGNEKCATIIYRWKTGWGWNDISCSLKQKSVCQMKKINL
Put plainly: Carbohydrate chain binding assay by ELISA. The settings on record: KS-II from bovine articular cartilage immobilised on ELISA plate; FIG. 8b. Here is the method:
Carbohydrate chain binding assay was performed in accordance with the method described in J. Bio. Chem., 2004, 279, 29043-29049. KS-II was diluted to 2 mg/mL with 100 mM sodium acetate (pH 5.5) and was oxidized with 2 mM sodium metaperiodate on ice for 1 hour to obtain a reactive aldehyde group. After further dilution, KS-II was incubated on a Covalink ELISA plate at 4° C. overnight and was reduced with 0.3% sodium cyanoborohydride at room temperature for 1.5 hours for covalent bonding. The plate was washed and was blocked with 2% bovine serum albumin (fraction V: manufactured by Sigma Corp.) at 37° C. for two hours. A recombinant mouse DCIR (mDCIR) containing an extracellular domain (99th to 238th residues) was expressed as an inclusion body in E. coli BL21 (DE3) pLysS using a pGMT7 plasmid and the […] was refolded by a typical dilution method. The mDCIR was incubated on the blocked and refolded plate at 4° C. overnight. Binding of protein was detected using anti-DCIR antibodies (a mixture of 320507 and 320511: manufactured by R&D Systems, Inc.) and HRP-linked rat IgG (manufactured by Zymed) in the presence of a TMB substrate (manufactured by Dako).
(In general: In an ELISA, binding on a coated surface is turned into a signal by an enzyme label.)

For the next experiment, the target named is T2, DCIR (Mus musculus, UniProt Q9QZ15).
T2 construct: immunoblot analysis for ITIM phosphorylation and SHP-1 recruitment in pOC lysate after KS-II stimulation; endogenous in cells; host or cells: mouse bone-marrow-derived osteoclast precursor cells (pOC)
T2 sequence (Q9QZ15 1-238): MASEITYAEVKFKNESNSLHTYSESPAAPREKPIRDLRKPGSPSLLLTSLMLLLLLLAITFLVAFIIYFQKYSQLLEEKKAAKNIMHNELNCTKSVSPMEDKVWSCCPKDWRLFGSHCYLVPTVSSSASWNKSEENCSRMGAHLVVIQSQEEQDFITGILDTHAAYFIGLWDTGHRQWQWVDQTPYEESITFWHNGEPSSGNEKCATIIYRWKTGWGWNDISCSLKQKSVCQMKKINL
Put plainly: Immunoprecipitation/immunoblot analysis of DCIR activation in pOC lysate after KS-II stimulation. In kind it is cell-based. The settings on record: immunoprecipitated with anti-DCIR antibody, FIG. 8f. An excerpt: In immunoprecipitation analysis, Protein G-Sepharose 4 Fast Flow (manufactured by GE Healthcare), mouse DCIR-specific antibody (320511: manufactured by R&D Systems, Inc.), phospho-Tyr (4G10: manufactured by Millipore), and SHP-1 (HG213: Upstate) were used. As the secondary antibody, a rabbit IgG-specific HRP-linked polyclonal antibody (manufactured by Cell Signaling) or a rat IgG-specific HRP-linked polyclonal antibody (manufactured by Zymed) was used.
A general note: A western blot detects proteins with antibodies after separation by electrophoresis.

A further experiment relates to calvarial OBs. Put plainly: Mineralization of calvarial osteoblasts (alizarin red and ALP staining of osteogenic culture). In kind it is cell-based, mouse. The following applies: FIG. 10f. On the procedure: Primary osteoblasts were isolated from the calvaria of a new born mouse. The calvaria was washed with PBS and was digested in α-MEM containing 0.25% trypsin and 2 mg/mL collagenase P (manufactured by Roche) at 37° C. for 20 minutes. The supernatant was removed, and the cells were further digested for 60 minutes.
In order to induce osteogenesis, primary osteoblasts (in a 96-well plate at 2×10^4 cells/well, in a 24-well plate at 5×10^4 cells/well, or in a 6-well plate at 2×10^5 cells/well) were cultured to confluent, and the culture medium was replaced by a culture medium containing 10 mM β-glycerophosphate and 50 μg/mL ascorbic acid. The culture medium was replaced three times in 21 days.
The osteoblasts cultured for 21 days were stained with alizarin red, von Kossa, and alkaline phosphatase (ALP).
The culture solution was removed from the osteoblasts cultured for 21 days by using PBS, and the osteoblasts were fixed with 3.7% formalin solution (Nacalai Tesque, Inc.) for 10 minutes. […]
Primary osteoblasts were cultured in a 96-well plate for 21 days and were measured with a TRACP & ALP Assay Kit (TaKaRa Bio Inc.). […] The reaction was terminated with 50 μL of a reaction terminating solution, and subsequently the activity was measured with MICROPLATE READER MTP-300 (CORONA ELECTRIC Co., Ltd.) at OD405.

The next experiment relates to OPG/RANKL ratio. Put plainly: Real-time RT-PCR of OPG/RANKL ratio in calvarial OBs. The format is cell-based. The following applies: WT mouse-derived OBs only (not KO); FIGS. 10k, 10l. On the procedure:
Semi-quantitative RT-PCR and real-time RT-PCR were slightly modified, but basically performed in accordance with the methods described in Nature Medicine, 2008, vol. 14, no. 2: 176-180 and Arthritis Res. Ther., 2006, 8, R100, 1-13. Total RNA was prepared by a typical acid guanidinium thiocyanate-phenol-chloroform method or a method using Sepasol-RNA I Super (manufactured by Nacalai Tesque, Inc.). The prepared RNA was reverse transcribed with SuperScript III First-Strand Synthesis System for RT-PCR (manufactured by Invitrogen) to prepare cDNA.
The real-time RT-PCR was performed using primers shown in Table 1, SYBR Green qPCR kit (manufactured by Invitrogen), and iCycler (manufactured by Bio-Rad Laboratories, Inc.).
Background: Quantitative PCR measures a nucleic acid by following its amplification.

In a further experiment the test system is TNF-α. The experiment is described as follows: TNF-α production in CpG-containing culture, measured by ELISA. The format is cell-based. The following applies: CpG 1 μM, 12 hours; KS-II 10 ng/mL, versus CpG alone; FIG. 12. On the procedure:
The anti-DCIR antibodies derived from hybridomas prepared in Example 4 were evaluated for binding ability to DCIR. Since DCIR has been reported to participate in suppression of immunoreaction (Nature Medicine, 2008, vol. 14, no. 2: 176-180), the DCIR-binding ability of each antibody was evaluated using expression of tumor necrosis factor α (TNF-α), which is an inflammatory cytokine, as a standard.
The hybridoma prepared in Example 4 was cultured in a culture medium containing CpG (concentration: 1 μM) for 12 hours, and the culture supernatant was collected. Separately, CpG ODN 1668 (Operon Technologies, Inc.) was cultured in the same medium or a medium further containing keratan sulfate (KS-II: 10 ng/mL), and the culture supernatant was collected. As a control, the cells were cultured in a CpG-free culture medium (NT). The TNF-α amount in each supernatant was measured by ELISA.

In experiment [3] the test system is osteoclast precursor cells (pOCs). Put plainly: Osteoclast differentiation with hybridoma supernatant or KS-II, count of TRAP-positive osteoclasts. The format is cell-based. The settings on record: KS-II 10 ng/mL; M-CSF 10 ng/mL + RANKL 100 ng/mL, three days; versus untreated; FIG. 13. On the procedure:
Furthermore, activities of the above-mentioned antibodies on osteoclast formation were evaluated using the activity of keratan sulfate as an indicator. Nonadherent bone marrow cells were seeded in a well plate (a 96-well plate at 1×10^5 cells/well) and were cultured in α-MEM (Gibco BRL) containing 10% FCS (manufactured by Biowest AG) and 10 ng/mL M-CSF (manufactured by R&D Systems, Inc.). After two days, the nonadherent cells (including lymphocytes) were washed away, and the remaining adherent cells were used as bone marrow-derived macrophages (BMMs). These osteoclast precursor cells (pOCs) were further cultured in the presence of 100 ng/mL of soluble RANKL (manufactured by PeproTech Inc. or Oriental Yeast Co., Ltd.) and 10 ng/mL of M-CSF to obtain osteoclasts. During the culturing, the hybridoma supernatant (one-tenth amount) or keratan sulfate (KS-II: 10 ng/mL) was added to the culture medium. After three days, the cells were collected and stained with TRAP. The number of TRAP-positive osteoclasts (having three or more nuclei) was counted. Untreated cells were used as a control (NT).

Experiment [4] has the same test system. The experiment is described as follows: Proliferation assay using pOC after GM-CSF stimulation. The format is cell-based, mouse. The settings on record: Dcir−/− pOCs; M-CSF 10 ng/mL and GM-CSF 20 ng/mL. On the procedure: as §1

As for `CC(=O)N[C@H]1C(O)O[C@H](CO)[C@@H](O[C@@H]2O[C@H](CO)[C@H](O)[C@H](O)[C@H]2O)[C@@H]1O` (some centres unmarked) [LacNAc, N-acetyllactosamine], the “OC differentiation in the presence of carbohydrate chain” value in experiment [1] is on record as “not influenced”.
Turning to chondroitin sulfate A, in experiment [1], the “OC differentiation in the presence of carbohydrate chain” value is listed as “not influenced”.
Still for that read-out and setting: next, dermatan sulfate: “not influenced”.
For the molecule keratan sulfate-II [KS-II], the “binding of recombinant mouse DCIR to KS-II” value in experiment [2] was “concentration-dependently binds”. The “OC formation (number of TRAP-positive MNCs)” value is on record as “did not inhibit” in experiment [1] (Dcir−/− cell culture) and “considerably inhibited” in experiment [1] (wild-type (WT) bone marrow cell culture). Further, at DCIR, the “phosphorylation of immunoreceptor tyrosine-based inhibitory motif (ITIM) in DCIR” value is “concentration-dependently accelerates”. Further, the “recruitment of tyrosine phosphatase SHP-1 in DCIR” value on DCIR is “concentration-dependently accelerates”. In addition, the entries for the “mineralization of OBs” value with calvarial OBs (Dcir−/− OBs) and in the experiment with calvarial OBs (WT OBs) were “does not suppress” and “suppresses”, respectively. Further, the OPG/RANKL ratio entry in the experiment on OPG/RANKL ratio is recorded as “decreases”. Further, in the experiment with TNF-α, the TNF-α production result is “suppressed”. In addition, the “differentiation to osteoclast (TRAP-positive, three or more nuclei)” value in experiment [3] is “suppressed”.

B1: GM-CSF: recombinant mouse GM-CSF (manufactured by PeproTech Inc.) (protein, UniProt P01587 18-141, looked up)
Granulocyte-macrophage …: APTRSPITVTRPWKHVEAIKEALNLLDDMPVTLNEEVEVVSNEFSFKKLTCVQTRLKIFEQGLRGNFTKLKGALNMTASYYQTYCPPTPETDCETQVTTYADFIDSLKTFLTDIPFECKKPGQK
As to B1, the “proliferation of pOCs” value in experiment [4] is “significantly increased”.
